Source: ChEMBL document CHEMBL1146065, “Structure-based optimization of azole antifungal agents by CoMFA, CoMSIA, and molecular docking” (2006)
In brackets after ≈: the same amount, converted by molar mass.

Assays:
Candida parapsilosis = test: Antifungal activity against Candida parapsilosis; assay type: functional; details: Lodderomyces parapsilosis
Candida tropicalis = test: Antifungal activity against Candida tropicalis; assay type: functional
Epidermophyton floccosum = test: Antifungal activity against Epidermophyton floccosum; assay type: functional
Sporothrix schenckii = test: Antifungal activity against Sporothrix schenckii; assay type: functional
Microsporum = test: Antifungal activity against Microsporum lanosum; assay type: functional
Nannizzia gypsea = test: Antifungal activity against Microsporum gypseum; assay type: functional
Trichophyton benhamiae = test: Antifungal activity against Trichophyton mentagrophytes; assay type: functional, Arthroderma benhamiae
Fonsecaea pedrosoi = test: Antifungal activity against Fonsecaea pedrosoi; assay type: functional
Cryptococcus neoformans = test: Antifungal activity against Cryptococcus neoformans; assay type: functional
Aspergillus fumigatus = test: Antifungal activity against Aspergillus fumigatus; assay type: functional
Candida albicans = test: Antifungal activity against Candida albicans; assay type: functional
Trichophyton rubrum = test: Antifungal activity against Trichophyton rubrum; assay type: functional
Trichophyton violaceum = test: Antifungal activity against Trichophyton violaceum; assay type: functional

Structure (SMILES)	MIC80 (Candida parapsilosis) [µg/mL]	MIC80 (Candida tropicalis) [µg/mL]	MIC80 (Epidermophyton floccosum) [µg/mL]	MIC80 (Sporothrix schenckii) [µg/mL]	MIC80 (Microsporum) [µg/mL]	MIC80 (Nannizzia gypsea) [µg/mL]	MIC80 (Trichophyton benhamiae) [µg/mL]	MIC80 (Fonsecaea pedrosoi) [µg/mL]	MIC80 (Cryptococcus neoformans) [µg/mL]	MIC80 (Aspergillus fumigatus) [µg/mL]	MIC80 (Candida albicans) [µg/mL]	MIC80 (Trichophyton rubrum) [µg/mL]	MIC80 (Trichophyton violaceum) [µg/mL]
CN(Cc1ccccc1F)CC(O)(Cn1cncn1)c1ccc(F)cc1F (centres undefined)	≤ 0.125	0.25 (≈ 0.664 µM)	< 0.0625	64 (≈ 170 µM)	0.5 (≈ 1.33 µM)	8 (≈ 21.3 µM)	< 0.0625	1 (≈ 2.66 µM)	0.5 (≈ 1.33 µM)	8 (≈ 21.3 µM)	0.5 (≈ 1.33 µM)	32 (≈ 85 µM)	2 (≈ 5.31 µM)
CN(Cc1ccc(Br)cc1F)CC(O)(Cn1cncn1)c1ccc(F)cc1F (centres undefined)	≤ 0.125	≤ 0.125	< 0.0625	64 (≈ 141 µM)	1 (≈ 2.2 µM)	32 (≈ 70.3 µM)	< 0.0625	≤ 0.125	≤ 0.125	0.5 (≈ 1.1 µM)	0.032 (≈ 0.0703 µM)	0.25 (≈ 0.549 µM)	2 (≈ 4.39 µM)
CN(Cc1ccc(Cl)c(Cl)c1)CC(O)(Cn1cncn1)c1ccc(F)cc1F (centres undefined)	1 (≈ 2.34 µM)	≤ 0.125	< 0.0625	32 (≈ 74.9 µM)	8 (≈ 18.7 µM)	16 (≈ 37.4 µM)	< 0.0625	≤ 0.125	≤ 0.125	4 (≈ 9.36 µM)	0.016 (≈ 0.0374 µM)	≤ 0.125	4 (≈ 9.36 µM)
Cc1ccc(C(=O)Nc2ccc(CN(C)CC(O)(Cn3cncn3)c3ccc(F)cc3F)cc2)cc1 (centres undefined)	0.031 (≈ 0.0631 µM)	0.016 (≈ 0.0326 µM)	–	–	2 (≈ 4.07 µM)	–	–	0.25 (≈ 0.509 µM)	0.5 (≈ 1.02 µM)	32 (≈ 65.1 µM)	0.016 (≈ 0.0326 µM)	≤ 0.125	–
CN(Cc1ccc(F)cc1Br)CC(O)(Cn1cncn1)c1ccc(F)cc1F (centres undefined)	0.25 (≈ 0.549 µM)	≤ 0.125	< 0.0625	64 (≈ 141 µM)	4 (≈ 8.79 µM)	32 (≈ 70.3 µM)	0.125 (≈ 0.275 µM)	0.25 (≈ 0.549 µM)	≤ 0.125	4 (≈ 8.79 µM)	0.032 (≈ 0.0703 µM)	1 (≈ 2.2 µM)	2 (≈ 4.39 µM)
CN(Cc1ccc(NC(=O)c2ccc([N+](=O)[O-])cc2)cc1)CC(O)(Cn1cncn1)c1ccc(F)cc1F (centres undefined)	0.125 (≈ 0.239 µM)	0.5 (≈ 0.957 µM)	–	–	4 (≈ 7.66 µM)	–	–	0.25 (≈ 0.478 µM)	0.5 (≈ 0.957 µM)	> 64	0.0625 (≈ 0.12 µM)	0.5 (≈ 0.957 µM)	–
CN(Cc1ccc(NC(=O)c2cccc([N+](=O)[O-])c2)cc1)CC(O)(Cn1cncn1)c1ccc(F)cc1F (centres undefined)	16 (≈ 30.6 µM)	4 (≈ 7.66 µM)	–	–	8 (≈ 15.3 µM)	–	–	0.5 (≈ 0.957 µM)	0.5 (≈ 0.957 µM)	64 (≈ 122 µM)	16 (≈ 30.6 µM)	0.25 (≈ 0.478 µM)	–
CN(Cc1ccc(NC(=O)c2ccc(Cl)cc2)cc1)CC(O)(Cn1cncn1)c1ccc(F)cc1F (centres undefined)	0.031 (≈ 0.0606 µM)	0.016 (≈ 0.0313 µM)	–	–	8 (≈ 15.6 µM)	–	–	≤ 0.125	0.25 (≈ 0.488 µM)	32 (≈ 62.5 µM)	0.016 (≈ 0.0313 µM)	≤ 0.125	–
